Source: patent US20190084900A1, “ISOTOPICALLY MODIFIED COMPOSITION AND THERAPEUTIC USES THEREOF” (RETROTOPE, INC., priority 2016, published 2019)
Entries after “also recorded” stand apart in the source; their conditions may differ. Where no end group is shown, it is not given here.

Experiments:
[1] = In vitro peptide aging: hydrolysis of the succinimide intermediate to isoaspartyl vs normal aspartyl peptide (HPLC); format: physicochemical; conditions: for average relative amount of isoaspartyl-containing peptide (isoAsp/(isoAsp+Asp)): samples aged at 37° C. for at least 24 h, pH 7.4
Description: Both isoaspartyl- and normal aspartyl-containing peptides arose from spontaneous deamidation of the deuterated asparaginyl residue upon incubation at pH 7.4 and 37° C.

[2] = In vitro peptide aging: deamidation of the asparaginyl residue, by reverse-phase HPLC with UV at 210 nm; conditions: pH 7.4, 37° C.
Description: (§1) Deuterated peptide VYPNGA and the protonated control peptide were dissolved in 0.1 M sodium phosphate, pH 7.44 at 23° C. These solutions were sterilized by passing them through 0.2 μm pore syringe filters (Fisher), and 50 μL aliquots containing 40 nmol of peptide were placed in 200 μL PCR tubes, which were incubated at 37° C. for various times up to 20.6 days. At this temperature, the pH of the phosphate buffer is very close to 7.40. At the end of the incubations, 4.5 μL of 1 M hydrochloric acid was added to each tube, lowering the pH to about 4 to minimize any additional deamidation of the asparaginyl residue. These aged samples were then stored at −20° C. prior to analysis by HPLC.
(§2) Deuterated and non-deuterated VYPNGA were aged in vitro in 0.1 M sodium phosphate at physiological pH and temperature. The rate of deamidation of the asparaginyl residue was determined by separating the peptide from its degradation products using reverse phase HPLC and measuring the UV absorbance at 210 nm using the approach of Geiger and Clarke, supra.
(§3) The l- and d-forms of these peptides were not separated under these conditions. These HPLC runs were done with a linear gradient from 100% buffer A (0.1% trifluoroacetic acid in water) to 86% buffer A/14% buffer B (0.1% trifluoroacetic acid, 0.9% water, 99% acetonitrile) in 28 min.
(§4) The relative quantity of asparagine-containing peptide remaining (open circles) was quantified by UV absorbance at 210 nm during separation of the peptides by HPLC using a reverse phase C18 column as shown in FIG. 2. There were 24 data points in each panel though some were concealed due to overlap, combined from two independent aging experiments. The line in each panel was fit to the data points using the first order reaction equation [A]=[A]0e−kt and least squares analysis.

[3] = Stephenson and Clarke; cited from earlier work
[4] = In vitro peptide aging: racemization, D-aspartate quantified in acid hydrolysates and rate constants fitted; format: physicochemical; conditions: for Asn/Asp/isoAsp residues racemized to the D-configuration by 4 days: 4 days of aging; for racemization rate constant of the succinimide: least squares fit of modeled D-Asx accumulation to measured values; for slope of racemization line (D-aspartate fraction versus time): deamidated peptides
Description: First, a 10 μL aliquot (3.27 nmol) was removed from the aged sample and dried in a small glass test tube. These tubes were placed in a hydrolysis vial and 300 μL of 6 M hydrochloric acid was added to the vial but not directly into the sample tubes. The vial was capped with a Teflon stopcock, and then was flushed with nitrogen and sealed under vacuum using a PicoTag Work Station (Waters). This method allows only acid vapor to contact the peptide, minimizing contamination with exogenous aspartic acid. Hydrolysis proceeded at 110° C. for the relatively short time of 3 h, which is long enough to release most of the asparaginyl/aspartyl residues from the peptide, while minimizing acid catalyzed racemization (Brunauer and Clarke 1986). D-Aspartate and L-aspartate in the hydrolysates were then modified with o-phthalaldehyde and N-acetyl-L-cysteine to make fluorescent diasteriomers and quantitated using reverse phase HPLC with fluorometric analysis (Aswad 1984), as modified by Warmack et al. 2016.
To get an estimate of the racemization rate constants, the rate constants determined by Geiger and Clarke (1987) for a peptide of the same sequence was used but only with protonated asparagine using the following equations, where each k value has the units of min^−1: […]
At time zero, the l-asparaginyl-containing peptide is set to a quantity of 1.0, and all of the degradation products are considered to have a quantity of 0. The equations are then solved to give the quantities of the peptides present after 1 min, and these quantities are then used to solve the peptides for the next minute. Using Microsoft Excel, these calculations were repeated until the amount of each peptide present after 20.6 days was determined.
To investigate the effect of asparagine residue deuteration on racemization, the peptides were aged at 37° C. and pH 7.4 as described above, and the quantity of D-aspartate determined following acid hydrolysis. While breaking the peptide bonds to release free amino acids, acid hydrolysis also converts asparaginyl, succinimidyl, and isoaspartyl residues into free aspartic acid. […] The accumulation of D-Asx residues (D-Asp, D-isoAsp, and D-succinimide) was modeled using the rate constants as described in the “Materials and methods” section to fit the data points using the values obtained by Geiger and Clarke (1987) and maximizing the fit by varying the rate constant for succinimide racemization.
VYPNGA containing either protiated or deuterated asparagine was incubated for various times at 37° C. and pH 7.4 and then acid hydrolyzed. The amount of d-aspartate and l-aspartate in the hydrolysates was quantified following derivatization with ortho-phthalaldehyde and N-acetyl-1-cysteine and separation of the resulting fluorescent diastereomers by reverse-phase HPLC, and graphed as the fraction of d-aspartate relative to the total aspartate (open circles). […] The lines were obtained by computer simulation of the reactions involved in deamidation of asparaginyl residues starting with previously published kinetic constants (Geiger and Clarke 1987), and varying the racemization rate of the succinimide intermediate to give a best-fit line as determined by least squares analysis.

[5] = Geiger and Clarke 1987; cited from earlier work
physchem = conditions: buffer, pH 7.4
Description: as §1, §2, §3, §4

[6] = between 9 and 22 days of incubation

Row | average relative amount of isoaspartyl-containing peptide (isoAsp/(isoAsp+Asp)) [1] | asparaginyl residues deamidated after 6 days [2] | asparaginyl residues deamidated after three days [2] [%] | Asn/Asp/isoAsp residues racemized to the D-configuration by 4 days ([4]; 37° C., pH 7.4) [%] | racemization rate constant of the succinimide ([4]; 37° C., pH 7.4) [min⁻¹] | slope of racemization line (D-aspartate fraction versus time) [4, 6] | racemization rate constant relative to that previously measured (Geiger and Clarke) ([4]; higher than the literature value) | rate of racemization of protiated peptide relative to deuterated peptide ([4]; within the first day of aging under physiological conditions) [times] | half-life at 800 µM (physchem) [h] | increase in production of normal aspartyl-containing peptide upon hydrolysis of the succinimide ring ([1]; deuterated versus protiated succinimide) | racemization rate constant relative to protiated peptide ([4]; 37° C., pH 7.4) | aspartyl/isoaspartyl/succinimidyl residues racemized to the D-configuration after 21 days ([4]; 37° C., pH 7.4, 21 days of incubation) [%] | succinimides that have lost the deuterium from the alpha carbon ([4]; 21 days of incubation, 2×1.49%) [%] | deamidated peptide still deuterated on the alpha carbon ([4]; after incubation, 9 to 22 days) | rate of racemization of l-aspartyl/l-isoaspartyl residues relative to protiated [4, 6] | Substance | succinimide formation of Asn residue in VYPNGA relative to aspartyl residue in VYPDGA [3] | L-isoAsp/(L-isoAsp+L-Asp) previously reported [5] | tendency of the succinimide to open to the isoaspartyl configuration / effect on succinimide hydrolysis ([1]; deuterated versus protonated succinimide) | effect of deuterium atoms on rate of deamidation / succinimide formation ([2]; versus protiated peptide) | accumulation of d-aspartyl and d-isoaspartyl forms / rate of D-aspartate formation relative to protiated peptide ([4]; pH 7.4, 37° C., up to 20 day incubation)
1 | 0.793 | about 95% | 80 | 5 | 0.00034 | 0.000677 day⁻¹ | about 1.14 fold | 3.65 | 32.4 |  |  |  |  |  |  | VYPNGA [protiated peptide, L-Val-L-Tyr-L-Pro-L-Asn-Gly-L-Ala, reference compound] | about 37 times | 0.785 |  |  | 
2 | 0.770 | about 95% | 80 | 1 | 7.4e-05 | about 1.70×10^−4 day^−1 |  |  |  | about 2.3% | almost five-fold lower | 1.49 | 2.98 | over 97% | about fourfold slower | VYPNGA [deuterated peptide] |  |  | slightly less likely to open to the isoaspartyl configuration; also recorded: only a small effect | little effect; also recorded: unchanged; also recorded: no effect | much slower rate; also recorded: decreased more than five-fold; also recorded: five-fold decreased rate; also recorded: much more resistant to racemization
